Patent US20260193271A1, “PAN-KRAS INHIBITOR COMPOUND” (ADLAI NORTYE BIOPHARMA CO., LTD., priority 2022, published 2026)

Tests used:
SW480 (G12V) = experiment: In vitro cell proliferation inhibition test (CellTiter-Glo), SW480; assay type: cell-based; settings: Homo sapiens, SW480 colon cell line, KRAS (p.G12V), 72 h co-incubation
Source text: (§1) Test Example 1: In Vitro Cell Proliferation Inhibition Test
(§2) Due to the diversity of RAS mutations and in order to evaluate the activity of compounds in different RAS mutation cell lines, we selected KRAS^WT, KRAS^G12C, KRAS^G12D, KRAS^G12V and BRAF mutation cell lines (see the table below) for in vitro activity evaluation and screening of compounds.
(§3) Protocol: CellTiter-Glo® Cell Luminescent Viability Assay (Promega)
(§4) According to the doubling time of different cell lines, different numbers of cells (1000-5000 cells/well) were seeded in 96-well plates containing 180 μl of corresponding culture medium and cultured overnight in a cell culture incubator at 37° C. with 5% CO2. On the second day, the test compound was pre-diluted 3-fold with culture medium, with the highest concentration being 100 μM, for a total of 10 concentration gradients; then 20 μl of culture medium containing different concentrations of the compound was added to the cells in the 96-well plate to ensure that the final concentration of the compound was up to 10 μM, with 10 concentration gradients of 3-fold dilution. After the cells and compounds were co-incubated for 72 h, the 96-well plate was removed from the incubator and equilibrated at room temperature for 30 min. Then, 25 μl of CellTiter-Glo® Reagent was added to each well and mixed thoroughly. The mixture was incubated at room temperature for 10 min, and then 100 μl of the sample was transferred to a white 96-well plate (OptiPlate™-96, PerkinElmer). The […] signal value was read using a multi-function microplate reader (SpectraMax® i3x, Molecular devices). The signal values were then standardized, and the curve was fitted using a four-parameter regression equation to calculate the half maximal inhibitory concentration (IC50) of the compound on the cell line.

AsPC-1 (G12D) = experiment: In vitro cell proliferation inhibition test (CellTiter-Glo), AsPC-1; assay type: cell-based; settings: KRAS (p.G12D), 72 h co-incubation
Source text: as §1, §2, §3, §4

[1] = Homo sapiens, ASPC1, AsPC-1 pancreas cell line

Molecule | IC50 (SW480 (G12V)) | IC50 (AsPC-1 (G12D); [1]) | IC50 (AsPC-1 (G12D); AsPC-1 pancreas cell line)
CCn1c(-c2cc(-c3ccc(CN4CCOCC4)cc3)cnc2[C@H](C)OC)c2c3cc(ccc31)-c1csc(n1)C[C@H](NC(=O)[C@H]1[C@H](C)[C@@H]1C)C(=O)N1CCC[C@H](N1)C(=O)OCC(C)(C)C2 (atropisomer, axis not shown) [Compound 1, (1r,2R,3S)-N-((6^3S,4S,Z)-1^1-ethyl-1^2-(2-((S)-1-methoxyethyl)-5-(4-(morpholinomethyl)phenyl)pyridin-3-yl)-10,10-dimethyl-5,7-dioxo-6^1,6^2,6^3,6^4,6^5,6^6-hexahydro-1^1H-8-oxa-2(4,2)-thiazola-1(5,3)-indola-6(1,3)-pyridazinacycloundecaphane-4-yl)-2,3-dimethylcyclopropane-1-carboxamide] | 1.3 nM | 1.1 nM | –
CCn1c(-c2cc(-c3ccc4c(c3)CN(C)C4)cnc2[C@H](C)OC)c2c3cc(ccc31)-c1csc(n1)C[C@H](NC(=O)[C@H]1C[C@@H]1C)C(=O)N1CCC[C@H](N1)C(=O)OCC(C)(C)C2 (atropisomer, axis not shown) [Compound 2, (1S,2S)-N-((6^3S,4S,Z)-1^1-ethyl-1^2-(2-((S)-1-methoxyethyl)-5-(2-methylisoindolin-5-yl)pyridin-3-yl)-10,10-dimethyl-5,7-dioxo-6^1,6^2,6^3,6^4,6^5,6^6-hexahydro-1^1H-8-oxa-2(4,2)-thiazola-1(5,3)-indola-6(1,3)-pyridazinacycloundecaphane-4-yl)-2-methylcyclopropane-1-carboxamide] | 670 nM | 21 nM | –
CCn1c(-c2cc(-c3ccc4c(c3)CCN(C)C4)cnc2[C@H](C)OC)c2c3cc(ccc31)-c1csc(n1)C[C@H](NC(=O)[C@H]1[C@H](C)[C@@H]1C)C(=O)N1CCC[C@H](N1)C(=O)OCC(C)(C)C2 (atropisomer, axis not shown) [Compound 3, (1r,2R,3S)-N-((6^3S,4S,Z)-1^1-ethyl-1^2-(2-((S)-1-methoxyethyl)-5-(2-methyl-1,2,3,4-tetrahydroisoquinolin-6-yl)pyridin-3-yl)-10,10-dimethyl-5,7-dioxo-6^1,6^2,6^3,6^4,6^5,6^6-hexahydro-1^1H-8-oxa-2(4,2)-thiazola-1(5,3)-indola-6(1,3)-pyridazinacycloundecaphane-4-yl)-2,3-dimethylcyclopropane-1-carboxamide] | 0.33 nM | 0.18 nM | –
CCn1c(-c2cc(-c3cccc(CN(C)C)c3)cnc2[C@H](C)OC)c2c3cc(ccc31)-c1csc(n1)C[C@H](NC(=O)[C@H]1[C@H](C)[C@@H]1C)C(=O)N1CCC[C@H](N1)C(=O)OCC(C)(C)C2 (atropisomer, axis not shown) [Compound 4, (1r,2R,3S)-N-((6^3S,4S,Z)-1^2-(5-(3-((dimethylamino)methyl)phenyl)-2-((S)-1-methoxyethyl)pyridin-3-yl)-1^1-ethyl-10,10-dimethyl-5,7-dioxo-6^1,6^2,6^3,6^4,6^5,6^6-hexahydro-1^1H-8-oxa-2(4,2)-thiazola-1(5,3)-indola-6(1,3)-pyridazinacycloundecaphane-4-yl)-2,3-dimethylcyclopropane-1-carboxamide] | 1.6 nM | 2.6 nM | –
CCn1c(-c2cc(-c3ccc(CN4CCOCC4)nc3)cnc2[C@H](C)OC)c2c3cc(ccc31)-c1csc(n1)C[C@H](NC(=O)[C@H]1C[C@@H]1C)C(=O)N1CCC[C@H](N1)C(=O)OCC(C)(C)C2 (atropisomer, axis not shown) [Compound 5, (1S,2S)-N-((6^3S,4S,Z)-1^1-ethyl-1^2-(6-((S)-1-methoxyethyl)-6′-(morpholinomethyl)-[3,3′-bipyridin]-5-yl)-10,10-dimethyl-5,7-dioxo-6^1,6^2,6^3,6^4,6^5,6^6-hexahydro-1^1H-8-oxa-2(4,2)-thiazola-1(5,3)-indola-6(1,3)-pyridazinacycloundecaphane-4-yl)-2-methylcyclopropane-1-carboxamide] | 10 nM | 6 nM | –
CCn1c(-c2cc(-c3ccc(CN4CC[C@@H](F)C4)cc3)cnc2[C@H](C)OC)c2c3cc(ccc31)-c1csc(n1)C[C@H](NC(=O)[C@H]1C[C@@H]1C)C(=O)N1CCC[C@H](N1)C(=O)OCC(C)(C)C2 (atropisomer, axis not shown) [Compound 6, (1S,2S)-N-((6^3S,4S,Z)-1^1-ethyl-1^2-(5-(4-(((R)-3-fluoropyrrolidin-1-yl)methyl)phenyl)-2-((S)-1-methoxyethyl)pyridin-3-yl)-10,10-dimethyl-5,7-dioxo-6^1,6^2,6^3,6^4,6^5,6^6-hexahydro-1^1H-8-oxa-2(4,2)-thiazola-1(5,3)-indola-6(1,3)-pyridazinacycloundecaphane-4-yl)-2-methylcyclopropane-1-carboxamide] | 23 nM | 13 nM | –
CCn1c(-c2cc(-c3ccc(CN4CCC(F)(F)CC4)cc3)cnc2[C@H](C)OC)c2c3cc(ccc31)-c1csc(n1)C[C@H](NC(=O)[C@H]1C[C@@H]1C)C(=O)N1CCC[C@H](N1)C(=O)OCC(C)(C)C2 (atropisomer, axis not shown) [Compound 7, (1S,2S)-N-((6^3S,4S,Z)-1^2-(5-(4-((4,4-difluoropiperidin-1-yl)methyl)phenyl)-2-((S)-1-methoxyethyl)pyridin-3-yl)-1^1-ethyl-10,10-dimethyl-5,7-dioxo-6^1,6^2,6^3,6^4,6^5,6^6-hexahydro-1^1H-8-oxa-2(4,2)-thiazola-1(5,3)-indola-6(1,3)-pyridazinacycloundecaphane-4-yl)-2-methylcyclopropane-1-carboxamide] | 159 nM | 128 nM | –
CCn1c(-c2cc(-c3ccc(CN4CCN(C)CC4)cc3)cnc2[C@H](C)OC)c2c3cc(ccc31)-c1csc(n1)C[C@H](NC(=O)[C@H]1C[C@@H]1C)C(=O)N1CCC[C@H](N1)C(=O)OCC(C)(C)C2 (atropisomer, axis not shown) [Compound 8, (1S,2S)-N-((6^3S,4S,Z)-1^1-ethyl-1^2-(2-((S)-1-methoxyethyl)-5-(4-((4-methylpiperazin-1-yl)methyl)phenyl)pyridin-3-yl)-10,10-dimethyl-5,7-dioxo-6^1,6^2,6^3,6^4,6^5,6^6-hexahydro-1^1H-8-oxa-2(4,2)-thiazola-1(5,3)-indola-6(1,3)-pyridazinacycloundecaphane-4-yl)-2-methylcyclopropane-1-carboxamide] | 1.4 nM | 0.7 nM | –
CCn1c(-c2cc(-c3cc(C4COCCN4C)on3)cnc2C(C)OC)c2c3cc(ccc31)-c1csc(n1)CC(NC(=O)C1C(C)C1C)C(=O)N1CCCC(N1)C(=O)OCC(C)(C)C2 [Compound 33′, (1r,2R,3S)-N-((6^3S,4S,Z)-1^1-ethyl-1^2-(2-((S)-1-methoxyethyl)-5-(5-((R)-4-methylmorpholin-3-yl)isoxazol-3-yl)pyridin-3-yl)-10,10-dimethyl-5,7-dioxo-6^1,6^2,6^3,6^4,6^5,6^6-hexahydro-1^1H-8-oxa-2(4,2)-thiazola-1(5,3)-indola-6(1,3)-pyridazinacycloundecaphane-4-yl)-2,3-dimethylcyclopropane-1-carboxamide] | – | – | 32 nM
CCn1c(-c2cc(-c3cc(C4(C)CN(C)C4)on3)cnc2C(C)OC)c2c3cc(ccc31)-c1csc(n1)CC(NC(=O)C1C(C)C1C)C(=O)N1CCCC(N1)C(=O)OCC(C)(C)C2 [Compound 34′, (1r,2R,3S)-N-((6^3S,4S,Z)-1^2-(5-(5-(1,3-dimethylazetidin-3-yl)isoxazol-3-yl)-2-((S)-1-methoxyethyl)pyridin-3-yl)-1^1-ethyl-10,10-dimethyl-5,7-dioxo-6^1,6^2,6^3,6^4,6^5,6^6-hexahydro-1^1H-8-oxa-2(4,2)-thiazola-1(5,3)-indola-6(1,3)-pyridazinacycloundecaphane-4-yl)-2,3-dimethylcyclopropane-1-carboxamide] | – | – | 116 nM
(1S,2S)-N-((6^3S,4S,Z)-1^1-ethyl-1^2-(2-((S)-1-methoxyethyl)-5-(1-(2-morpholinoethyl)-1H-pyrazol-4-yl)pyridin-3-yl)-10,10-dimethyl-5,7-dioxo-6^1,6^2,6^3,6^4,6^5,6^6-hexahydro-1^1H-8-oxa-2(4,2)-thiazola-1(5,3)-indola-6(1,3)-pyridazinacycloundecaphane-4-yl)-2-methylcyclopropane-1-carboxamide [Compound 15′] | – | – | 1020 nM
(1S,2S)-N-((6^3S,4S,Z)-1^1-ethyl-1^2-(2-((S)-1-methoxyethyl)-5-(5-(1-methylazetidin-3-yl)isoxazol-3-yl)pyridin-3-yl)-10,10-dimethyl-5,7-dioxo-6^1,6^2,6^3,6^4,6^5,6^6-hexahydro-1^1H-8-oxa-2(4,2)-thiazola-1(5,3)-indola-6(1,3)-pyridazinacycloundecaphane-4-yl)-2-methylcyclopropane-1-carboxamide [Compound 31′] | – | – | 53 nM
(1S,2S)-N-((6^3S,4S,Z)-1^1-ethyl-1^2-(2-((S)-1-methoxyethyl)-5-(5-(1-methylpiperidin-4-yl)isoxazol-3-yl)pyridin-3-yl)-10,10-dimethyl-5,7-dioxo-6^1,6^2,6^3,6^4,6^5,6^6-hexahydro-1^1H-8-oxa-2(4,2)-thiazola-1(5,3)-indola-6(1,3)-pyridazinacycloundecaphane-4-yl)-2-methylcyclopropane-1-carboxamide [Compound 30′] | – | – | 60 nM
